# Test results taken from patent publication US20250223270A1, “Sulfonamide Compounds and Use Thereof” (Taiho Pharmaceutical Co., Ltd., priority 2017, published 2025).
# Entries after “also recorded” stand apart in the source; their conditions may differ.
# How the values were obtained:
# Type in all cases: physicochemical
# [1] = Charging property (adhesion to spatula or glass bottle); settings: adhesion to a spatula or a glass bottle
# [2] = Optical purity stability by chiral HPLC; settings: 40° C./75% RH (closed and open condition), 24 hours
# Experimental: The optical purity was also measured by the following HPLC condition • Detector: UV at 240 nm • Column: […] IE (4.6×250 mm, 5 μm)/Daicel corp. • Column temperature: 40° C. • Mobile phase: n-hexane/ethanol/ethanolamine/acetic acid (65:35:0.5:0.2) • Flow rate: 1.0 mL/min • Injection: 5 μL • Sample temperature: 5° C. • Time span of measurement: 40 min
# Compound—RR, RS,SS: 0.05%
# The optical purity was measured also with added 0.2% optical isomer.
# The solid stability of the exemplary sample of the present invention and the free form obtained
# above was tested before and after the sample was stored at 40° C./75% RH (closed and open condition) for 24 hours.
# [3] = Solid stability test, 40° C./75% RH, 70° C., 80° C., by HPLC
# Experimental: (§1) The solid stability of the exemplary sample of the present invention and the free form obtained above was tested after the sample was stored at 40° C./75% RH (open condition), 70° C. (closed) and 80° C. (closed) after 2 weeks or 4 weeks. Open condition means that the lid of the glass bottle was removed and covered with Kimwipe, 70° C. and 80° C. (closed). • Measurement points: 2 weeks and 4 weeks • Storage amount: about 30 mg • Storage container: brown glass bottle
# (§2) The amount of analogous substances in the sample solution was measured by HPLC analysis. The handling of the device including data processing was in accordance with the manual provided with the device. (i.e., Prominence-i). About 2 mg of the exemplary sample of the present invention was dissolve in 4 mL of mobile phase A/mobile phase B mixture (17:3), and the resulting mixture was used as sample solution. • Column: CAPCELL PAK ADME manufactured by Shiseido (4.6×150 mm, 3 μm) • UV detection: 220 nm • Column temperature: 40° C. • Column flow rate: 1.0 mL/min • Mobile phase: A; 5 mM phosphate buffer, pH 6.5/Acetonitrile (4:1) • B: acetonitrile • Injection volume: 5 μL • Sample cooler temperature: 5° C. • Collection time: 40 minutes
# [4] = Stability test, 40° C./75% RH, analogous substances by HPLC
# Experimental: as §2, with “6.2/Acetonitrile” for “6.5/Acetonitrile”
# as §1, with “(closed” for “(open condition), 70° C. (closed)”, “open condition) for” for “80° C. (closed) after”, “Kimwipe.” for “Kimwipe, 70° C. and 80° C. (closed).”, “50 to 60” for “30”
# [5] = Hygroscopicity, moisture adsorption/desorption test; settings: for hygroscopicity: moisture adsorption/desorption test, FIG. 8; for mass change in moisture adsorption/desorption test: relative humidity of 95%, 25° C.
# Experimental: The moisture adsorption/desorption test was carried out according to the following conditions.
# Approximately 10 to 15 mg of the sample was filled in a dedicated quartz holder, and the weight of each sample at each humidity was continuously measured and recorded under the following conditions.
# [6] = Solubility test, 37° C., 2 hours; settings: for Solubility: 2 hours
# Experimental: About 15 mg of the exemplary sample of the present invention was added to 1 mL of each solvent and was swelled at 37° C. for 2 hours under light resistant condition. After centrifugation, each supernatant was filtered, and 0.7 mL of a mixture of water and acetonitrile (1:1) was added to 0.1 ml of the filtrate.
# Following of mobile phase: Control the gradient by mixing the mobile phase A and B as directed in the following table below • Flow rate: 1.0 mL per minutes • Time span of measurement: For 12 minutes after injection
SMILES,charging property [1],change in the optical purity [2],"Chemical Purity (%) ([3]; 40° C. 75% RH (Open), 4wks)","Total amount of analogous substances (%) ([3]; 40° C. 75% RH (Open), 4wks)","Chemical Purity (%) ([3]; 70° C. (Closed), 2 wks)","Total amount of analogous substances (%) ([3]; 70° C. (Closed), 2 wks)","Chemical Purity (%) ([3]; 70° C. (Closed), 4 wks)","Total amount of analogous substances (%) ([3]; 70° C. (Closed), 4 wks)","Chemical Purity (%) ([3]; 80° C. (Closed), 2 wks)","Total amount of analogous substances (%) ([3]; 80° C. (Closed), 2 wks)","Chemical Purity (%) ([3]; 80° C. (Closed), 4 wks)","Total amount of analogous substances (%) ([3]; 80° C. (Closed), 4 wks)",Chemical Purity (%) ([3]; Initial),Total amount of analogous substances (%) ([3]; Initial),"Chemical Purity (%) ([4]; 40° C./75% RH (Closed), 2 wks)","Total amount of analogous substances (%) ([4]; 40° C./75% RH (Closed), 2 wks)","Chemical Purity (%) ([4]; 40° C./75% RH (Closed), 4 wks)","Total amount of analogous substances (%) ([4]; 40° C./75% RH (Closed), 4 wks)","Chemical Purity (%) ([4]; 40° C./75% RH (Open), 2 wks)","Total amount of analogous substances (%) ([4]; 40° C./75% RH (Open), 2 wks)",also measured
"Cc1ccc(F)c([C@@H](C)[C@H](NS(=O)(=O)c2ccc(Cl)cc2C(N)=O)c2n[nH]c(=O)o2)c1C [Comparative Example, 5-chloro-2-(N-((1S,2R)-2-(6-fluoro-2,3-dimethylphenyl)-1-(5-oxo-4,5-dihydro-1,3,4-oxadiazol-2-yl)propyl)sulfamoyl)benzamide]",high charging property,No significant change,97.97,2.03,97.31,2.69,96.39,3.61,95.90,4.10,92.92,7.08,98.33,1.67,98.42,1.58,98.16,1.84,98.35,1.65,"charging property ([1]; listed as free form): high charging property; Chemical Purity (%) ([4]; 40° C./75% RH (Open), 4 wks): 98.14%; Total amount of analogous substances (%) ([4]; 40° C./75% RH (Open), 4 wks): 1.86%; Chemical Purity (%) ([4]; Initial): 98.49%; Total amount of analogous substances (%) ([4]; Initial): 1.51%; hygroscopicity ([5]; listed as free form): had hygroscopicity; mass change in moisture adsorption/desorption test [5]: about 3.8%"
"Cc1ccc(F)c([C@@H](C)[C@H](NS(=O)(=O)c2ccc(Cl)cc2C(N)=O)c2n[nH]c(=O)o2)c1C [Exemplary Sample, 5-chloro-2-(N-((1S,2R)-2-(6-fluoro-2,3-dimethylphenyl)-1-(5-oxo-4,5-dihydro-1,3,4-oxadiazol-2-yl)propyl)sulfamoyl)benzamide]",weak charging property; also recorded: low charging property,No significant change,99.69,0.31,99.67,0.33,99.68,0.32,99.66,0.34,99.66,0.34,99.69,0.31,98.67,1.33,98.62,1.38,98.67,1.33,"Solubility ([6]; 0.5% HPMC, 37° C.): 130 µg/mL; Solubility ([6]; Acetate buffer (50 mM, pH 4.0), 37° C.): 260 µg/mL; Solubility ([6]; Second fluid for dissolution test, pH 6.8, 37° C.): 610 µg/mL; change on XRD pattern ([6]; after 2 hr solubility study): No significant change; Chemical Purity (%) ([4]; 40° C./75% RH (Open), 4 wks): 98.60%; Total amount of analogous substances (%) ([4]; 40° C./75% RH (Open), 4 wks): 1.40%; Chemical Purity (%) ([4]; Initial): 98.67%; Total amount of analogous substances (%) ([4]; Initial): 1.33%; hygroscopicity [5]: almost no hygroscopicity; mass change in moisture adsorption/desorption test [5]: about 0.1%"
